Test system: ovariectomized SD female rats
Assay: In vivo anti-osteoporosis assay, digital medical image analysis of femurs (DXA / Micro-CT)
Parameters: species or system rat
Conditions: femur, OVX SD female rats, oral, 3 months, L 50 mg/kg, E2 estrogen 50 μg/kg, mean ± S.E.M., n=6
Protocol: In this example, an in vivo assay for anti-osteoporosis activity of the Pennisetum extract was carried out on ovariectomized SD female rats in an animal feeding experiment mode, and the analysis of the femur bone mineral density and trabecular bone measurement was performed to confirm the pharmacological activity. The experimental method is as follows: (1) Test substance and control substances: The test group (L) uses the Pennisetum alcohol extract prepared in the foregoing Example 1 as the test substance. The blank control group (Control) and the ovariectomized group (OVX) were administered with ethanol as the control substance. The positive control group (E2) was administered with estrogen as the control substance. (2) Test animals: Test animals (including the test group, ovariectomized group and positive control group) were ovariectomized SD female rats, and the test on animals simulating the menopausal mode was started 2 weeks after oophorectomy. The blank control group was SD female rats without oophorectomy (only subjected to sham surgery). (3) Animal feeding management: The feeding environment was temperature 20° C. to 25° C.; humidity 65% to 80%; and lighting time 12 hours (monitoring environment every day). During the acclimation and test period, every 4 female rats were housed in an autoclaved plastic rearing cage (46 cm×25 cm×20 cm). Drinking water was treated with a reverse osmosis pure water machine, and then charged in a high temperature autoclaved plastic bottle to give the test animals for free drinking. (4) Acclimation: Ovariectomized SD female rats delivered by BioLASCO Co., Ltd. were acclimated for one week after entering the laboratory. During this period, clinical symptoms were observed every day, and healthy rats with normal weight gain were confirmed for the test. (5) Administration of test substance and control substances: After one week of acclimation, the experimental rats were orally administered with different doses of Pennisetum alcohol extract, ethanol or estrogen for 3 consecutive months, and then all the experimental rats were fasted one night before sacrifice to simulate the clinically applicable route of administration for the human body. During the 3 consecutive months of testing, according to the weight of the day before the administration, the test group was administered with a solution of the Pennisetum alcohol extract (10 mL/kg), which was prepared by dissolving 50 mg of Pennisetum alcohol extract in 10.0 mL of 10% ethanol; the blank control group and the ovariectomized group were administered with 10% ethanol (10.0 mL/kg); and the positive control group was administered with estrogen, which was dissolved in 10% ethanol (10.0 mL/kg). (6) The animal grouping was performed according to the body weight in an S-type order after the animals gained weight. The bone density (mass/volume) of the appropriate bone was measured by a dual energy X-ray absorptiometer (DXA) or micro-computerized tomography (Micro-CT, μ-CT; also used to measure the trabecular number). During the measurement, the DXA with two different energies was used to scan the inspection site, then the X-rays passing through the tested site was received by a scintillation detector, and then a computer analyzed the data to calculate the bone quality of the tested site. The records of the percentage of bone mass (bone volume/tissue volume), trabecular separation/spacing (Tb.Sp), trabecular number (Tb.N) and bone mineral density (BMD) in each group are shown in Table 5. It is represented by mean±standard error (S.E.M.) (n=6), and a, b, c, and d in the table represent statistical differences between the groups. The experimental data were statistically analyzed by one-way ANOVA. The statistical method of correlation index changes between the groups was statistically analyzed by Duncan test. […]

[1] = listed as positive control group

estrogen [E2]
Bone Mineral Density: 0.619 mg/cm^2 | Percentage of Bone Mass (bone volume/tissue volume): 10.512% | Trabecular Number (Tb.N): 0.908 ± 1/mm | Trabecular Separation/Spacing (Tb.Sp): 1.103 mm | Percentage of Bone Mass (bone volume/tissue volume) [1]: 10.512±1.071% | Trabecular Number (Tb.N) [1]: 0.908±0.085 1/mm

— US11033599B2, “Pennisetum extract, process for manufacturing the same and uses thereof” (METAL INDUSTRIES RESEARCH & DEVELOPMENT CENTRE, priority 2017, dated 2021)
